Where two headings read alike, the source gives them in different places. Ends that are not written are not given here.
Test system: S. enterica serovar Typhimurium ATCC 13311
Type: cell-based, Salmonella enterica serovar Typhimurium
Protocol: A modified version of the National Committee for Clinical Laboratory Standards (NCCLS) broth microdilution method ([Steinberg et al., 1997]) was used to determine the minimum inhibitory concentrations (MICs) of peptide and compared to that of nisin. Fifty microliters of two-fold serial dilutions of each peptide [0.98–250 μg/ml in 0.01% (v/v) acetic acid and 0.2% (w/v) bovine serum albumin (BSA, Sigma-Aldrich, MO, United States)], were incubated with 50 μl of bacterial suspensions (approximately 10^7 CFU/ml) at 37°C for 24 h in a shaking incubator. MICs were taken as the lowest concentration of peptide at which growth was inhibited as observed by visual inspection. Bacterial cultures without peptides and uncultured broth were used as positive and negative controls, respectively. Minimal bactericidal concentrations (MBCs) were determined using a colony count assay ([Clinical Laboratory Standards Institute [CLSI], 2015]). Fifty microliters of samples from each non-turbid well in the MIC determination experiment was plated on Mueller Hinton Agar (MHA) and colonies were observed after overnight incubation at 37°C. MBCs were designated as the least concentration showing no colony growth on the plate. All of experiments were performed in triplicate.
The stability of P7 was tested by determining its antibacterial activity after exposure to different environmental conditions (high salt concentration, different ranges of pH, proteolytic enzymes and high temperatures) as previously described ([Shwaiki et al., 2020]). To test the effect of salts on the antibacterial activity of P7, 10^7 CFU/ml of S. enterica serovar Typhimurium ATCC 13311 was exposed to two-fold serially diluted concentrations (0.98–250 μg/ml) of P7 in the presence of different salts including NaCl (150 mM), KCl (4.5 mM), MgCl2 (1 mM), NH4Cl (6 μM), ZnCl2 (8 μM), FeCl3 (4 μM), and CaCl2 ([…]) ([Xu et al., 2014]). To determine pH stability, the pH of the peptide’s solution was adjusted to 3, 5, 7, 9, and 11 using 1 M NaOH or 1 M acetic acid (CH3COOH). P7 were incubated in the different pH conditions for 1 h, then transferred to inoculated MHB for antibacterial testing ([Chen et al., 2020]), There was no change of the pH following the addition of peptide. To determine the sensitivity of peptide to proteolytic enzymes, the residual activity of P7 was measured after incubation the peptide with 1 mg/ml (final concentration) of proteolytic enzymes (pepsin or trypsin) at 37°C for 1 h and heat denaturation at 80°C for 1 h. To study thermostability, peptides were pre-incubated without bacteria at various temperatures (40, 60, 80, and 100°C) for 1 h and left to cool for 30 min before testing. After these treatments, the antibacterial assays were carried out and MICs determined as described in section “Antibacterial activity assay.”

[1] = peptide pre-incubated at 40°C for 1 h, cooled 30 min

## KIAKRIWKILRR-NH2 [P7]
ATCC 13311, 1 h
  MIC: 7.81 µg/mL
ATCC 13311, 1 h, pH 3
  MBC: 15.63 µg/mL
  MIC: 7.81 µg/mL
ATCC 13311, 1 h, pH 5
  MBC: 7.81 µg/mL
  MIC: 7.81 µg/mL
ATCC 13311, 1 h, pH 7
  MBC: 7.81 µg/mL
  MIC: 7.81 µg/mL
ATCC 13311, 1 h, pH 9
  MBC: 7.81 µg/mL
  MIC: 7.81 µg/mL
ATCC 13311, 1 h, pH 11
  MBC: 15.63 µg/mL
  MIC: 7.81 µg/mL
ATCC 13311, 24 h
  MIC: 7.81 µg/mL
Control (no salt)
  MBC: 3.91 µg/mL
  MIC: 3.91 µg/mL
MgCl2 (1 mM)
  MIC: 31.25 µg/mL
NaCl (150 mM)
  MIC: 31.25 µg/mL
After pepsin 1 mg/ml, 37°C, 1 h, then heat denaturation 80°C
  MIC: 31.25 µg/mL
After trypsin 1 mg/ml, 37°C, 1 h, then heat denaturation 80°C
  MIC: 31.25 µg/mL
[1]
  MBC: 3.91 µg/mL
  MIC: 3.91 µg/mL
Peptide pre-incubated at 60°C for 1 h, cooled 30 min
  MIC: 3.91 µg/mL

From publication PMC7838546, “A Thermostable, Modified Cathelicidin-Derived Peptide With Enhanced Membrane-Active Activity Against Salmonella enterica serovar Typhimurium” (Frontiers in Microbiology, 2021)
